“Also recorded” adds a separate entry of the source.
Test system: patients diagnosed with herpes simplex virus (seizures associated with herpes simplex virus)
Experiment: Open label, expanded-access program: seizure frequency recorded by caregivers in a diary, change relative to baseline
Format: in vivo, human
Set-up: Reduction in myoclonic seizures over the treatment period / Reduction in absence seizures over the treatment period / Reduction in focal seizures with impairment over the treatment period / Reduction in tonic-clonic seizures over the treatment period / Reduction in atonic seizures over the treatment period / Reduction in tonic seizures over the treatment period: concentration or dose not given beside the values; Seizure frequency, tonic-clonic / Seizure frequency, myoclonic / Seizure frequency, absence / Seizure frequency, focal with impairment / Seizure frequency, tonic / Seizure frequency, focal without impairment / Seizure frequency, atonic: unit not given here
Conditions: for Seizure frequency, focal with impairment: baseline 14.0; for Seizure frequency, absence: baseline 28.0; for Seizure frequency, myoclonic: baseline 59.0; for Seizure frequency, tonic: baseline 24.0
Protocol: Subjects were required to be on one or more AEDs at stable doses for a minimum of two weeks prior to baseline and to have stable vagus nerve stimulation (VNS) settings and ketogenic diet ratios for a minimum of four weeks prior to baseline.
Modifications were made to concomitant AEDs as per clinical indication.
Seizure frequency, intensity, and duration were recorded by caregivers in a diary during a baseline period of at least 28 days. Changes in seizure frequency relative to baseline were calculated after at least 2 weeks and at defined timepoints of treatment.
Patients may be defined as responders if they had more than 50% reduction in seizure frequency compared to baseline. The percent change in seizure frequency was calculated as follows: […]
The percent change of seizure frequency may be calculated for any time interval where seizure number has been recorded. For the purpose of this example the percent change of seizure frequency for the end of the treatment period was calculated as follows: […]

[1] = Patient 4, treated for 24 weeks, vs baseline
[2] = Patient 5, 4 weeks, CBD 20.0 mg/kg/day
[3] = Patient 5, 8 weeks, CBD 25.0 mg/kg/day
[4] = Patient 5, 12 weeks, CBD 25.0 mg/kg/day
[5] = Patient 5, 16 weeks, CBD 25.0 mg/kg/day
[6] = Patient 5, 24 weeks, CBD 30.0 mg/kg/day
[7] = Patient 5, 36 weeks, CBD 40.0 mg/kg/day
[8] = Patient 5, 60 weeks, CBD 50.0 mg/kg/day
[9] = Patient 5, 72 weeks, CBD 50.0 mg/kg/day
[10] = Patient 5, 84 weeks, CBD 30.0 mg/kg/day
[11] = Patient 5, 96 weeks, CBD 45.0 mg/kg/day
[12] = Patient 5, 108 weeks, CBD 45.0 mg/kg/day
[13] = Patient 5, 120 weeks, CBD 45.0 mg/kg/day
[14] = Patient 5, 132 weeks, CBD 45.0 mg/kg/day
[15] = Patient 5, 144 weeks, CBD 45.0 mg/kg/day
[16] = Patient 5, treated for 144 weeks, vs baseline

SMILES: C=C(C)[C@@H]1CCC(C)=C[C@H]1c1c(O)cc(CCCCC)cc1O [CBD, cannabidiol]
- Seizure frequency, tonic-clonic (Patient 4, 16 weeks, CBD 15.0 mg/kg/day, baseline 10.0): 0.7
- Seizure frequency, focal with impairment (Patient 4, 16 weeks, CBD 15.0 mg/kg/day): 2.7
- Seizure frequency, atonic (Patient 4, 16 weeks, CBD 15.0 mg/kg/day, baseline 20.0): 14.0
- Seizure frequency, tonic-clonic (Patient 4, 24 weeks, CBD 15.0 mg/kg/day, baseline 10.0): 10.0
- Seizure frequency, focal with impairment (Patient 4, 24 weeks, CBD 15.0 mg/kg/day): 3.0
- Seizure frequency, atonic (Patient 4, 24 weeks, CBD 15.0 mg/kg/day, baseline 20.0): 13.0
- Reduction in atonic seizures over the treatment period [1]: 35%
- Reduction in focal seizures with impairment over the treatment period [1]: 78.6%
- Seizure frequency, absence [2]: 45.0
- Seizure frequency, myoclonic [2]: 75.0
- Seizure frequency, tonic-clonic (Patient 5, 4 weeks, CBD 20.0 mg/kg/day, baseline 71.0): 75.0
- Seizure frequency, atonic (Patient 5, 4 weeks, CBD 20.0 mg/kg/day, baseline 748.0): 965.0
- Seizure frequency, absence [3]: 0.0
- Seizure frequency, myoclonic [3]: 60.0
- Seizure frequency, tonic-clonic (Patient 5, 8 weeks, CBD 25.0 mg/kg/day, baseline 71.0): 7.0
- Seizure frequency, atonic (Patient 5, 8 weeks, CBD 25.0 mg/kg/day, baseline 748.0): 8.0
- Seizure frequency, absence [4]: 0.0
- Seizure frequency, myoclonic [4]: 1.0
- Seizure frequency, tonic-clonic (Patient 5, 12 weeks, CBD 25.0 mg/kg/day, baseline 71.0): 4.0
- Seizure frequency, atonic (Patient 5, 12 weeks, CBD 25.0 mg/kg/day, baseline 748.0): 25.0
- Seizure frequency, absence [5]: 0.0
- Seizure frequency, myoclonic [5]: 0.0
- Seizure frequency, tonic-clonic (Patient 5, 16 weeks, CBD 25.0 mg/kg/day, baseline 71.0): 10.0
- Seizure frequency, atonic (Patient 5, 16 weeks, CBD 25.0 mg/kg/day, baseline 748.0): 53.0
- Seizure frequency, absence [6]: 0.0
- Seizure frequency, myoclonic [6]: 68.0
- Seizure frequency, tonic-clonic (Patient 5, 24 weeks, CBD 30.0 mg/kg/day, baseline 71.0): 40.0
- Seizure frequency, absence [7]: 0.0
- Seizure frequency, myoclonic [7]: 129.0
- Seizure frequency, tonic-clonic (Patient 5, 36 weeks, CBD 40.0 mg/kg/day, baseline 71.0): 76.0
- Seizure frequency, atonic (Patient 5, 36 weeks, CBD 40.0 mg/kg/day, baseline 748.0): 44.0
- Seizure frequency, absence [8]: 0.0
- Seizure frequency, myoclonic [8]: 184.0
- Seizure frequency, tonic-clonic (Patient 5, 60 weeks, CBD 50.0 mg/kg/day, baseline 71.0): 137.0
- Seizure frequency, atonic (Patient 5, 60 weeks, CBD 50.0 mg/kg/day, baseline 748.0): 45.0
- Seizure frequency, absence [9]: 3.0
- Seizure frequency, myoclonic [9]: 141.0
- Seizure frequency, tonic-clonic (Patient 5, 72 weeks, CBD 50.0 mg/kg/day, baseline 71.0): 130.0
- Seizure frequency, atonic (Patient 5, 72 weeks, CBD 50.0 mg/kg/day, baseline 748.0): 46.3
- Seizure frequency, absence [10]: 5.7
- Seizure frequency, myoclonic [10]: 81.0
- Seizure frequency, tonic-clonic (Patient 5, 84 weeks, CBD 30.0 mg/kg/day, baseline 71.0): 77.0
- Seizure frequency, atonic (Patient 5, 84 weeks, CBD 30.0 mg/kg/day, baseline 748.0): 39.3
- Seizure frequency, absence [11]: 8.0
- Seizure frequency, myoclonic [11]: 41.0
- Seizure frequency, tonic-clonic (Patient 5, 96 weeks, CBD 45.0 mg/kg/day, baseline 71.0): 72.0
- Seizure frequency, atonic (Patient 5, 96 weeks, CBD 45.0 mg/kg/day, baseline 748.0): 97.0
- Seizure frequency, absence [12]: 11.0
- Seizure frequency, myoclonic [12]: 64.0
- Seizure frequency, tonic-clonic (Patient 5, 108 weeks, CBD 45.0 mg/kg/day, baseline 71.0): 53.0
- Seizure frequency, atonic (Patient 5, 108 weeks, CBD 45.0 mg/kg/day, baseline 748.0): 92.0
- Seizure frequency, absence [13]: 11.3
- Seizure frequency, myoclonic [13]: 53.0
- Seizure frequency, tonic-clonic (Patient 5, 120 weeks, CBD 45.0 mg/kg/day, baseline 71.0): 44.3
- Seizure frequency, atonic (Patient 5, 120 weeks, CBD 45.0 mg/kg/day, baseline 748.0): 72.3
- Seizure frequency, absence [14]: 18.8
- Seizure frequency, myoclonic [14]: 66.4
- Seizure frequency, tonic-clonic (Patient 5, 132 weeks, CBD 45.0 mg/kg/day, baseline 71.0): 40.4
- Seizure frequency, atonic (Patient 5, 132 weeks, CBD 45.0 mg/kg/day, baseline 748.0): 128.0
- Seizure frequency, absence [15]: 49.6
- Seizure frequency, myoclonic [15]: 78.0
- Seizure frequency, tonic-clonic (Patient 5, 144 weeks, CBD 45.0 mg/kg/day, baseline 71.0): 18.0
- Seizure frequency, atonic (Patient 5, 144 weeks, CBD 45.0 mg/kg/day, baseline 748.0): 78.4
- Reduction in atonic seizures over the treatment period [16]: 89.5%
- Reduction in tonic-clonic seizures over the treatment period [16]: 76.4%
- Seizure frequency, tonic (Patient 6, 2 weeks, CBD 5.0 mg/kg/day): 40.0
- Seizure frequency, tonic (Patient 6, 4 weeks, CBD 10.0 mg/kg/day): 20.0
- Seizure frequency, tonic (Patient 6, 8 weeks, CBD 20.0 mg/kg/day): 32.0
- Seizure frequency, tonic (Patient 6, 12 weeks, CBD 25.0 mg/kg/day): 12.0
- Seizure frequency, tonic (Patient 6, 24 weeks, CBD 25.0 mg/kg/day): 15.2
- Seizure frequency, tonic (Patient 6, 36 weeks, CBD 25.0 mg/kg/day): 15.2
- Seizure frequency, tonic (Patient 6, 48 weeks, CBD 25.0 mg/kg/day): 18.0
- Seizure frequency, tonic (Patient 6, 60 weeks, CBD 25.0 mg/kg/day): 19.2
- Reduction in tonic seizures over the treatment period (Patient 6, treated for 60 weeks, vs baseline): 20%
- Reductions in seizures over period of treatment, overall (all six patients, tonic, tonic-clonic, atonic, myoclonic, absence and focal seizures with impairment): 20-100%
- Benefit in patients with focal seizures with impairment (in words) (patients 1 and 4): significant benefit
- Effect on seizure frequency (in words) (six patients, tonic, tonic-clonic, atonic, myoclonic, absence and focal seizures with impairment): effective in reducing the frequency; also recorded: significantly reduce the number of seizures; also recorded: significant reduction

Reference: patent US20240033272A1, “USE OF C[…] THE TREATMENT OF SEIZURES ASSOCIATED WITH HERPES SIMPLEX VIRUS” (GW Research Limited, priority 2020, published 2024)
